According to ChEMBL document CHEMBL3352132, “Synthesis, screening and docking of small heterocycles as glycogen phosphorylase inhibitors” (Eur J Med Chem, 2014):
Active and inactive are the calls of the source. The calls are words filed in the database; no cut-off is given here.

Key:
[1] = molecular target: T1, Glycogen phosphorylase, muscle form (Oryctolagus cuniculus) (UniProt P00489); test: Inhibition of rabbit muscle glycogen phosphorylase a assessed as inhibition of release of phosphate from glucose-1-phosphate at 222 mM after 30 mins by spectrophotometry
T1 sequence (whole entry): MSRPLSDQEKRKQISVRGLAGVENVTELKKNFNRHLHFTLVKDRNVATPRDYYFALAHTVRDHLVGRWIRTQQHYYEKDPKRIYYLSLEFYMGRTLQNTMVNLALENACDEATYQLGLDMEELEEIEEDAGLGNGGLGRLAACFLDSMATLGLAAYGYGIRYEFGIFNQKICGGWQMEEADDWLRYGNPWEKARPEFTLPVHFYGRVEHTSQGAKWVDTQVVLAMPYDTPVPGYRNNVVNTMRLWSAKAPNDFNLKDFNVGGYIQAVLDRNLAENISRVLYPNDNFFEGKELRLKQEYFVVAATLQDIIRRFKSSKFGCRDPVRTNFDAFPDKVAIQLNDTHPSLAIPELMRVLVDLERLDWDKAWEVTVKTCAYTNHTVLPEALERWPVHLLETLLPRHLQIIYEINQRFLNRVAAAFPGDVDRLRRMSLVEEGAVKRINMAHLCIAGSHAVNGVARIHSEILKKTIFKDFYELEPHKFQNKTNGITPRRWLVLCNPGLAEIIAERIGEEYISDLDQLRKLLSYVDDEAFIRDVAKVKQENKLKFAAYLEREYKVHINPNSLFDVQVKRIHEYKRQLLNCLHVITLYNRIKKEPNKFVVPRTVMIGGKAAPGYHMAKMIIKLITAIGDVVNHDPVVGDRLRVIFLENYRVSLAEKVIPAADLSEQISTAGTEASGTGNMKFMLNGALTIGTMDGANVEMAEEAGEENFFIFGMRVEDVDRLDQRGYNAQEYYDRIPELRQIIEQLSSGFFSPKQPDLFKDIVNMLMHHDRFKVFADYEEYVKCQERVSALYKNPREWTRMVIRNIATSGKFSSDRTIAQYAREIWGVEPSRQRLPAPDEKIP

[2] = molecular target: T2, Glycogen phosphorylase, muscle form (Oryctolagus cuniculus, UniProt P00489); test: (§1) Inhibition of rabbit muscle glycogen phosphorylase a assessed as inhibition of release of phosphate from glucose-1-phosphate after 30 mins by spectrophotometry
T2 sequence (P00489 whole entry): T1 sequence (whole entry)

[3] = molecular target: T1, Glycogen phosphorylase, muscle form (Oryctolagus cuniculus); test: Inhibition of rabbit muscle glycogen phosphorylase a assessed as inhibition of release of phosphate from glucose-1-phosphate at 111 mM after 30 mins by spectrophotometry
[4] = molecular target: T1, Glycogen phosphorylase, muscle form (Oryctolagus cuniculus); test: as §1
[5] = molecular target: T1, Glycogen phosphorylase, muscle form (Oryctolagus cuniculus); test: Inhibition of rabbit muscle glycogen phosphorylase a assessed as inhibition of release of phosphate from glucose-1-phosphate at 22 mM after 30 mins by spectrophotometry
[6] = molecular target: T1, Glycogen phosphorylase, muscle form (Oryctolagus cuniculus); test: Inhibition of rabbit muscle glycogen phosphorylase a assessed as inhibition of release of phosphate from glucose-1-phosphate at 56 mM after 30 mins by spectrophotometry

## NC(CCC(=O)O)C(=O)N1CCOCC1 (stereo unspecified)
[1]
  inhibition: 25%

## c1ccc(C2=NC3CCCCC3N2)cc1 (stereo unspecified)
[2]
  IC50: 7.8 mM

## c1ccc(C2=NCCCN2)cc1
[1]
  inhibition: 99%

## c1ccc(C2=NCCCO2)cc1
[3]
  inhibition: 39%

## NCCCCC(N)C(=O)N1CCOCC1 (stereo unspecified)
[4]
  Activity: inactive

## CC1CN=C(c2ccccc2)O1 (stereo unspecified)
[3]
  inhibition: 78%

## c1ccc(C2=NCCCCN2)cc1
[2]
  IC50: 3 mM

## c1ccc(C2=NCCCCO2)cc1
[2]
  IC50: 1.4 mM

## O=C(NC(Cc1ccccc1)C(=O)N1CCOCC1)OCc1ccccc1 (stereo unspecified)
[4]
  Activity: inactive

## c1ccc(C2=NCCS2)cc1
[5]
  inhibition: 39%

## c1ccc(C2=NCCO2)cc1
[2]
  IC50: 23.9 mM

## COC(=O)[C@@H]1CSC(c2ccccc2)=N1
[2]
  IC50: 0.025 mM

## CC(C)(C)OC(=O)NC(CCC(=O)O)C(=O)N1CCOCC1 (stereo unspecified)
[3]
  inhibition: 12%

## CC1(C)CN=C(c2ccccc2)NC1
[2]
  IC50: 1.2 mM

## NC(Cc1ccccc1)C(=O)N1CCOCC1 (stereo unspecified)
[1]
  inhibition: 20%

## CC(C)(C)OC(=O)N1CCCN=C1c1ccccc1
[2]
  IC50: 1.1 mM

## O=C(NCCCCC(NC(=O)OCc1ccccc1)C(=O)N1CCOCC1)OCc1ccccc1 (stereo unspecified)
[1]
  inhibition: 5%

## CC(C)CC(NC(=O)OCc1ccccc1)C(=O)N1CCOCC1 (stereo unspecified)
[4]
  Activity: inactive

## CC(C)CC(N)C(=O)N1CCOCC1 (stereo unspecified)
[2]
  IC50: 6.5 mM

## O=[N+]([O-])c1ccc(C2=NCCO2)cc1
[6]
  inhibition: 94%

## CC(C)N1CCCN=C1c1ccccc1
[2]
  IC50: 7.2 mM
